# Test results published in publication PMC8037182, “Solvothermal Synthesis of Multiple Dihydropyrimidinones at a Time as Inhibitors of Eg5” (Molecules, 2021).
# Legend:
# [1] = tested on: Caco-2 cell line; experiment: Cytotoxicity MTS assay, Caco-2 cell line; assay type: cell-based; conditions: for OD490 Mean / OD490 Well 1 / OD490 Well 2 / OD490 Well 3: Caco-2 cell line
# Outline: (§1)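 Steps: plate 1000 cells per well; incubate 24 h; add compound (final 0.5 to 100 µM) or 0.025% DMSO blank for 24 h; add MTS reagent, hold 2 h at 37 °C in 5% CO2; read A490; fit percent viability against concentration by non-linear regression to obtain IC50.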
# [2] = tested on: Hela cell line; experiment: Cytotoxicity MTS assay, Hela cell line; assay type: cell-based; conditions: for OD490 value, Mean / OD490 value, Well 1 / OD490 value, Well 2 / OD490 value, Well 3: Hela cell line, MTS;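 as to OD490 value, Mean: blank control wells received 0.025% DMSO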;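 as to OD490 value, Well 1: blank control wells received 0.025% DMSO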;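 as to OD490 value, Well 2: blank control wells received 0.025% DMSO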;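 as to OD490 value, Well 3: blank control wells received 0.025% DMSO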
# Outline: as §1
smiles,measurement,setting,value
CCOC(=O)c1[nH]c(C2NC(=O)NC(C)=C2C(=O)Nc2ccccc2C)c(C(=O)OC)c1C (centres unmarked) [D4],OD490 Mean,"[1]; 0.5μM, first assay",0.5704
same,OD490 Well 1,"[1]; 0.5μM, first assay",0.5884
same,OD490 Well 2,"[1]; 0.5μM, first assay",0.5582
same,OD490 Well 3,"[1]; 0.5μM, first assay",0.5647
same,OD490 Mean,"[1]; 0.5μM, second assay",0.5955
same,OD490 Well 1,"[1]; 0.5μM, second assay",0.5407
same,OD490 Well 2,"[1]; 0.5μM, second assay",0.6416
same,OD490 Well 3,"[1]; 0.5μM, second assay",0.6041
same,OD490 Mean,"[1]; 0.5μM, third assay",0.6609
same,OD490 Well 1,"[1]; 0.5μM, third assay",0.6698
same,OD490 Well 2,"[1]; 0.5μM, third assay",0.6201
same,OD490 Well 3,"[1]; 0.5μM, third assay",0.6928
same,OD490 Mean,"[1]; 1μM, first assay",0.5753
same,OD490 Well 1,"[1]; 1μM, first assay",0.5948
same,OD490 Well 2,"[1]; 1μM, first assay",0.5673
same,OD490 Well 3,"[1]; 1μM, first assay",0.5637
same,OD490 Mean,"[1]; 1μM, second assay",0.6402
same,OD490 Well 1,"[1]; 1μM, second assay",0.6433
same,OD490 Well 2,"[1]; 1μM, second assay",0.6589
same,OD490 Well 3,"[1]; 1μM, second assay",0.6185
same,OD490 Mean,"[1]; 1μM, third assay",0.6218
same,OD490 Well 1,"[1]; 1μM, third assay",0.6635
same,OD490 Well 2,"[1]; 1μM, third assay",0.6890
same,OD490 Well 3,"[1]; 1μM, third assay",0.5129
same,OD490 Mean,"[1]; 10μM, first assay",0.5338
same,OD490 Well 1,"[1]; 10μM, first assay",0.5500
same,OD490 Well 2,"[1]; 10μM, first assay",0.5282
same,OD490 Well 3,"[1]; 10μM, first assay",0.5233
same,OD490 Mean,"[1]; 10μM, second assay",0.5742
same,OD490 Well 1,"[1]; 10μM, second assay",0.5277
same,OD490 Well 2,"[1]; 10μM, second assay",0.6414
same,OD490 Well 3,"[1]; 10μM, second assay",0.5536
same,OD490 Mean,"[1]; 10μM, third assay",0.5630
same,OD490 Well 1,"[1]; 10μM, third assay",0.5899
same,OD490 Well 2,"[1]; 10μM, third assay",0.5614
same,OD490 Well 3,"[1]; 10μM, third assay",0.5377
same,OD490 Mean,"[1]; 25μM, first assay",0.5869
same,OD490 Well 1,"[1]; 25μM, first assay",0.5783
same,OD490 Well 2,"[1]; 25μM, first assay",0.5766
same,OD490 Well 3,"[1]; 25μM, first assay",0.6058
same,OD490 Mean,"[1]; 25μM, second assay",0.5033
same,OD490 Well 1,"[1]; 25μM, second assay",0.5352
same,OD490 Well 2,"[1]; 25μM, second assay",0.4777
same,OD490 Well 3,"[1]; 25μM, second assay",0.4969
same,OD490 Mean,"[1]; 25μM, third assay",0.5111
same,OD490 Well 1,"[1]; 25μM, third assay",0.5123
same,OD490 Well 2,"[1]; 25μM, third assay",0.4876
same,OD490 Well 3,"[1]; 25μM, third assay",0.5333
same,OD490 Mean,"[1]; 50μM, first assay",0.5039
same,OD490 Well 1,"[1]; 50μM, first assay",0.4576
same,OD490 Well 2,"[1]; 50μM, first assay",0.5055
same,OD490 Well 3,"[1]; 50μM, first assay",0.5485
same,OD490 Mean,"[1]; 50μM, second assay",0.4399
same,OD490 Well 1,"[1]; 50μM, second assay",0.41
same,OD490 Well 2,"[1]; 50μM, second assay",0.4612
same,OD490 Well 3,"[1]; 50μM, second assay",0.4486
same,OD490 Mean,"[1]; 50μM, third assay",0.4077
same,OD490 Well 1,"[1]; 50μM, third assay",0.4412
same,OD490 Well 2,"[1]; 50μM, third assay",0.4698
same,OD490 Well 3,"[1]; 50μM, third assay",0.3120
same,OD490 Mean,"[1]; 100μM, first assay",0.3850
same,OD490 Well 1,"[1]; 100μM, first assay",0.4202
same,OD490 Well 2,"[1]; 100μM, first assay",0.3796
same,OD490 Well 3,"[1]; 100μM, first assay",0.3553
same,OD490 Mean,"[1]; 100μM, second assay",0.3934
same,OD490 Well 1,"[1]; 100μM, second assay",0.4418
same,OD490 Well 2,"[1]; 100μM, second assay",0.3643
same,OD490 Well 3,"[1]; 100μM, second assay",0.3741
same,OD490 Mean,"[1]; 100μM, third assay",0.4011
same,OD490 Well 1,"[1]; 100μM, third assay",0.3698
same,OD490 Well 2,"[1]; 100μM, third assay",0.4013
same,OD490 Well 3,"[1]; 100μM, third assay",0.4321
same,IC50,"[1]; MTS assay, 24 h exposure",80.5 µM
same,"OD490 value, Mean","[2]; 0.5μM, first assay",2.5619
same,"OD490 value, Well 1","[2]; 0.5μM, first assay",2.3169
same,"OD490 value, Well 2","[2]; 0.5μM, first assay",2.6787
same,"OD490 value, Well 3","[2]; 0.5μM, first assay",2.6902
same,"OD490 value, Mean","[2]; 0.5μM, second assay",2.6585
same,"OD490 value, Well 1","[2]; 0.5μM, second assay",2.7756
same,"OD490 value, Well 2","[2]; 0.5μM, second assay",2.2036
same,"OD490 value, Well 3","[2]; 0.5μM, second assay",2.9963
same,"OD490 value, Mean","[2]; 0.5μM, third assay",2.6298
same,"OD490 value, Well 1","[2]; 0.5μM, third assay",2.6541
same,"OD490 value, Well 2","[2]; 0.5μM, third assay",2.5689
same,"OD490 value, Well 3","[2]; 0.5μM, third assay",2.6665
same,"OD490 value, Mean","[2]; 1μM, first assay",2.4999
same,"OD490 value, Well 1","[2]; 1μM, first assay",2.4427
same,"OD490 value, Well 2","[2]; 1μM, first assay",2.5466
same,"OD490 value, Well 3","[2]; 1μM, first assay",2.5103
same,"OD490 value, Mean","[2]; 1μM, second assay",2.6707
same,"OD490 value, Well 1","[2]; 1μM, second assay",2.6654
same,"OD490 value, Well 2","[2]; 1μM, second assay",2.6879
same,"OD490 value, Well 3","[2]; 1μM, second assay",2.6588
same,"OD490 value, Mean","[2]; 1μM, third assay",2.5654
same,"OD490 value, Well 1","[2]; 1μM, third assay",2.6540
same,"OD490 value, Well 2","[2]; 1μM, third assay",2.5421
same,"OD490 value, Well 3","[2]; 1μM, third assay",2.5000
same,"OD490 value, Mean","[2]; 10μM, first assay",2.7063
same,"OD490 value, Well 1","[2]; 10μM, first assay",2.6331
same,"OD490 value, Well 2","[2]; 10μM, first assay",2.7562
same,"OD490 value, Well 3","[2]; 10μM, first assay",2.7295
same,"OD490 value, Mean","[2]; 10μM, second assay",2.7726
same,"OD490 value, Well 1","[2]; 10μM, second assay",2.6985
same,"OD490 value, Well 2","[2]; 10μM, second assay",2.7856
same,"OD490 value, Well 3","[2]; 10μM, second assay",2.8336
same,"OD490 value, Mean","[2]; 10μM, third assay",2.5863
same,"OD490 value, Well 1","[2]; 10μM, third assay",2.3545
same,"OD490 value, Well 2","[2]; 10μM, third assay",2.7454
same,"OD490 value, Well 3","[2]; 10μM, third assay",2.6589
same,"OD490 value, Mean","[2]; 25μM, first assay",2.5844
same,"OD490 value, Well 1","[2]; 25μM, first assay",2.5014
same,"OD490 value, Well 2","[2]; 25μM, first assay",2.5977
same,"OD490 value, Well 3","[2]; 25μM, first assay",2.6541
same,"OD490 value, Mean","[2]; 25μM, second assay",2.6351
same,"OD490 value, Well 1","[2]; 25μM, second assay",2.6354
same,"OD490 value, Well 2","[2]; 25μM, second assay",2.6289
same,"OD490 value, Well 3","[2]; 25μM, second assay",2.6410
same,"OD490 value, Mean","[2]; 25μM, third assay",2.6063
same,"OD490 value, Well 1","[2]; 25μM, third assay",2.5658
same,"OD490 value, Well 2","[2]; 25μM, third assay",2.6542
same,"OD490 value, Well 3","[2]; 25μM, third assay",2.5988
same,"OD490 value, Mean","[2]; 50μM, first assay",2.4897
same,"OD490 value, Well 1","[2]; 50μM, first assay",2.2013
same,"OD490 value, Well 2","[2]; 50μM, first assay",2.5633
same,"OD490 value, Well 3","[2]; 50μM, first assay",2.7046
same,"OD490 value, Mean","[2]; 50μM, second assay",2.4794
same,"OD490 value, Well 1","[2]; 50μM, second assay",2.5532
same,"OD490 value, Well 2","[2]; 50μM, second assay",2.4198
same,"OD490 value, Well 3","[2]; 50μM, second assay",2.4652
same,"OD490 value, Mean","[2]; 50μM, third assay",2.5366
same,"OD490 value, Well 1","[2]; 50μM, third assay",2.4650
same,"OD490 value, Well 2","[2]; 50μM, third assay",2.5462
same,"OD490 value, Well 3","[2]; 50μM, third assay",2.5985
same,"OD490 value, Mean","[2]; 100μM, first assay",1.9103
same,"OD490 value, Well 1","[2]; 100μM, first assay",1.9024
same,"OD490 value, Well 2","[2]; 100μM, first assay",1.9524
same,"OD490 value, Well 3","[2]; 100μM, first assay",1.8761
same,"OD490 value, Mean","[2]; 100μM, second assay",2.0041
same,"OD490 value, Well 1","[2]; 100μM, second assay",2.0124
same,"OD490 value, Well 2","[2]; 100μM, second assay",2.0036
same,"OD490 value, Well 3","[2]; 100μM, second assay",1.9963
same,"OD490 value, Mean","[2]; 100μM, third assay",1.9351
same,"OD490 value, Well 1","[2]; 100μM, third assay",1.8989
same,"OD490 value, Well 2","[2]; 100μM, third assay",1.9478
same,"OD490 value, Well 3","[2]; 100μM, third assay",1.9587
same,IC50,"[2]; MTS assay, 24 h exposure",> 150 µM
